Patent publication US11786511B2, “Methods for increasing circulating mesenchymal stem cells” (University of Southern California, priority 2017, dated 2023)
“Also recorded” adds a separate entry of the source.

Columns and labels:
Type in all cases: in vivo, C57BL/10ScSn-Dmd^mdx/J)
[1] = test system: bone marrow MSCs; assay: Bone marrow CFU-F colony count after 6 weeks oral treatment in the mdx mouse model of DMD; settings: mdx mice, vs vehicle treated mdx
Description: (§1) In the mdx mouse model of DMD, 5 week-old wild-type (C57BL/10SnJ) and mdx (C57BL/10ScSn-Dmd^mdx/J) mice were treated for 6 weeks and necropsied. These mice were broken into 4 orally dosed groups: a wild-type group (n=5) dosed twice daily with vehicle, an mdx group (n=8) dosed twice daily with vehicle, an mdx group (n=8) dosed once daily with 8 mg/kg of Compound 7, and an mdx group (n=8) dosed twice daily with 8 mg/kg of Compound 7. The vehicle was a 1% β-cyclodextrin in ˜pH 3 citrate buffer and the treatment 1% β-cyclodextrin in ˜pH 3 citrate buffer with Compound 7. At necropsy, the femur bone marrow was isolated and peripheral blood was harvested. The bone marrow was cultured in Mesencult™ MSC Basal Medium (mouse) supplemented with Mesencult™ MSC Stimulatory Supplement (Stemcell Technologies). CFU-F colonies of ≥50 cells were counted after 8 days in culture.
At necropsy, the femurs were also collected in a 1.5 mL microcentrifuge tube containing ˜800 μL of sterile Dulbecco's phosphate-buffered saline (DPBS) with 2% fetal bovine serum (FBS) and 2× Penicillin (Pen) and 2× Streptomycin (Strep) (DPBS/2% FBS/2× Pen/Strep) and stored on ice. […] The cell solutions were counted with a Z1 Coulter Counter (Beckman Coulter) and resuspended at 5*10^6 cells/mL. […] On day 8, the colonies of ≥50 were counted by light microscopy.

[2] = test system: bone marrow MSCs (CD45 negative, Sca-1, CD29 & CD105 positive); assay: Flow cytometry of bone marrow for CD45 negative cells triply positive for Sca-1, CD29 & CD105, mdx mouse model; settings: mdx mice, 8 mg/kg oral once or twice daily, 6 weeks, vs vehicle treated mdx
Description: as §1, with “The bone marrow was cultured in Mesencult™ MSC Basal Medium (mouse) supplemented with Mesencult™ MSC Stimulatory Supplement (Stemcell Technologies).” left out, “culture. […]” for “culture.”
(§2) During the necropsy, the blood was collected by cardiac puncture with a 1 mL syringe fitted with a 22G needle, transferred into 2 ml K3E K3EDTA VACUETTE® tubes, and stored on ice. […] The cell solutions were counted with a Z1 Coulter Counter (Beckman Coulter) and resuspended at 5*10^6 cells/mL. […] The supernatant was then removed, re-suspend in 500 μL 10% neutral buffered formalin, covered with aluminum foil, and stored at 4° C. until analyzed. Samples were then read on a LSR II flow cytometer (BD Biosciences, San Jose, Calif.). Data was analyzed using FlowJo™ V 10.0.7r2.

[3] = test system: circulating MSCs (CD45 negative, Sca-1, CD29 & CD105 positive); assay: Flow cytometry of peripheral blood for CD45 negative cells triply positive for Sca-1, CD29 & CD105, mdx mouse model; settings: mdx mice, 8 mg/kg oral twice daily, 6 weeks, vs vehicle treated mdx and wild-type
Description: as §1, with “The bone marrow was cultured in Mesencult™ MSC Basal Medium (mouse) supplemented with Mesencult™ MSC Stimulatory Supplement (Stemcell Technologies).” left out, “culture. […]” for “culture.”
as §2

## CCCCOC(=O)NS(=O)(=O)c1ccc(OC(F)(F)F)cc1-c1ccc(Cn2ccnc2)cn1 [Compound 7]
[1]; 8 mg/kg oral once daily
  Bone marrow MSC, CFU-F counts (colonies of ≥50 cells after 8 days in culture): significantly increased; also recorded: significant increase
[1]; 8 mg/kg oral twice daily
  Bone marrow MSC, CFU-F counts (colonies of ≥50 cells after 8 days in culture): restoring levels comparable to the non-dystrophic controls; also recorded: significant increase
[2]
  Percentage of CD45 negative cells triply positive for Sca-1, CD29 & CD105 in bone marrow: restored the percentage of these triply positive cells to levels comparable to non-dystrophic controls; also recorded: significantly increased
[3]
  Percentage of CD45 negative cells triply positive for Sca-1, CD29 & CD105 in peripheral blood (circulating MSCs): significantly higher; also recorded: significant increase
